In ChEMBL document CHEMBL3352426, “A natural phenylpropionate derivative from Mirabilis himalaica inhibits cell proliferation and induces apoptosis in HepG2 cells” (Bioorg Med Chem Lett, 2014):
In brackets after ≈: the same amount, converted by molar mass. Activity calls are given as the source filed them. The calls are words filed in the database; no cut-off is given here.

Experiments:
HepG2 [1] = experiment: Induction of alteration in mitochondrial membrane potential in human HepG2 cells assessed as decrease Rh-123 fluorescence after 48 hrs by flow cytometric analysis; format: functional, cell-based
HepG2 [2] = experiment: Induction of apoptosis in human HepG2 cells assessed as increase in Bax level after 48 hrs by Western blot analysis; format: functional, cell-based
HepG2 [3] = experiment: Effect on Cyclin A expression in human HepG2 cells after 48 hrs by Western blot analysis; format: functional, cell-based
HepG2 [4] = experiment: Induction of apoptosis in human HepG2 cells assessed as decrease in Bcl2 level after 48 hrs by Western blot analysis; format: functional, cell-based
HepG2 [5] = experiment: Cytotoxicity against human HepG2 cells assessed as decrease in positive staining after 1 hr by BrdU immunofluorescence assay relative to untreated control; format: functional
HepG2 [6] = experiment: Cytotoxicity against human HepG2 cells assessed as inhibition of cell proliferation at 20 ug/ml by MTT assay; format: functional
HepG2 [7] = experiment: Induction of apoptosis in human HepG2 cells assessed as assessed as accumulation at G0/G1 phase after 48 hrs by propidium iodide staining-based flow cytometric analysis (reference value: 70.8%); format: functional
HepG2 [8] = experiment: Induction of apoptosis in human HepG2 cells assessed as assessed as increase in apoptotic cells after 48 hrs by annexin V/propidium iodide staining-based flow cytometric analysis; format: functional
HepG2 [9] = experiment: Induction of apoptosis in human HepG2 cells assessed as assessed as accumulation at G2/M phase after 48 hrs by propidium iodide staining-based flow cytometric analysis (reference value: 10.4%); format: functional
HepG2 [10] = experiment: Induction of alteration in mitochondrial membrane potential in human HepG2 cells assessed as decrease Rh-123 fluorescence at 20 ug/ml after 48 hrs by flow cytometric analysis; format: functional; settings: HepG2, 48 h
HepG2 [11] = experiment: Induction of apoptosis in human HepG2 cells transfected with p53 shRNA assessed as apoptotic cell accumulation after 48 hrs by annexin V/propidium iodide staining-based flow cytometric analysis; format: functional
HepG2 [12] = experiment: Effect on CDK2 expression in human HepG2 cells after 48 hrs by Western blot analysis; format: functional, cell-based
HepG2 [13] = experiment: Effect on CDK6 expression in human HepG2 cells after 48 hrs by Western blot analysis; format: functional, cell-based
HepG2 [14] = experiment: Effect on CDK4 expression in human HepG2 cells after 48 hrs by Western blot analysis; format: functional, cell-based
[15] = Cytotoxicity against human L02 cells assessed as assessed as apoptotic cells after 48 hrs by annexin V/propidium iodide staining-based flow cytometric analysis; format: cell-based; settings: l02, 48 h
HepG2 [16] = experiment: Increase in p21 expression in human HepG2 cells after 48 hrs by Western blot analysis; format: functional, cell-based
Mus musculus = experiment: Toxicity in human HepG2 cells injected in ip dosed mouse assessed as change in body weight; format: organism-based; settings: in vivo
HepG2 [17] = experiment: Induction of apoptosis in human HepG2 cells transfected with pBabe-puro assessed as apoptotic cell accumulation after 48 hrs by annexin V/propidium iodide staining-based flow cytometric analysis; format: functional
HepG2 [18] = experiment: Antitumor activity against human HepG2 cells injected in ip dosed mouse assessed as reduction in tumor size treated for 13 days; format: functional
HepG2 [19] = experiment: Induction of alteration in mitochondrial membrane potential in human HepG2 cells assessed as decrease Rh-123 fluorescence at 5 ug/ml after 48 hrs by flow cytometric analysis; format: functional; settings: HepG2, 48 h
HepG2 [20] = experiment: Induction of apoptosis in human HepG2 cells assessed as caspase 3 activation after 48 hrs by Western blot analysis; format: functional, cell-based
HepG2 [21] = experiment: Effect on Cyclin D1 expression in human HepG2 cells after 48 hrs by Western blot analysis; format: functional, cell-based
HepG2 [22] = experiment: Induction of apoptosis in human HepG2 cells transfected with pBabe-puro with Bcl2 assessed as apoptotic cell accumulation after 48 hrs by annexin V/propidium iodide staining-based flow cytometric analysis; format: functional
HepG2 [23] = experiment: Increase in p53 expression in human HepG2 cells after 48 hrs by Western blot analysis; format: functional, cell-based
HepG2 [24] = experiment: Cytotoxicity against human HepG2 cells assessed as inhibition of cell proliferation after 48 hrs by CCK8 assay; format: functional, cell-based
HepG2 [25] = experiment: Induction of apoptosis in human HepG2 cells assessed as assessed as accumulation at S phase after 48 hrs by propidium iodide staining-based flow cytometric analysis (reference value: 18.9%); format: functional
HepG2 [26] = experiment: Cytotoxicity against human HepG2 cells assessed as inhibition of cell proliferation at 2.5 to 40 ug/ml by CCK8 assay; format: functional, cell-based; settings: TDE = time-dependent effect
HepG2 [27] = experiment: Induction of alteration in mitochondrial membrane potential in human HepG2 cells assessed as decrease Rh-123 fluorescence at 10 ug/ml after 48 hrs by flow cytometric analysis; format: functional; settings: HepG2, 48 h

COc1cc(OC(=O)/C=C/c2ccc(O)cc2OC)ccc1O
inhibition (HepG2 [1]): Dose-dependent effect
Activity (HepG2 [2]): Active
Activity (HepG2 [3]): inactive
inhibition (HepG2 [4]): Active
inhibition (INH) (HepG2 [5]): 40%
inhibition at 20 µg/mL (HepG2 [6]): 37%
Activity (HepG2 [7]): 52.6%
Activity (HepG2 [8]): 89.9%
Activity (HepG2 [9]): 11.4%
inhibition at 20 µg/mL (HepG2 [10]): 84.9%
Activity (HepG2 [11]): 68.8%
Activity (HepG2 [12]): inactive
Activity (HepG2 [13]): inactive
Activity (HepG2 [14]): inactive
Activity [15]: Non-toxic
Activity (HepG2 [16]): Active
Activity (Mus musculus): Non-toxic
Activity (HepG2 [17]): 75.4%
inhibition (INH) (HepG2 [18]): 50%
inhibition at 5 µg/mL (HepG2 [19]): 37.1%
Activity (HepG2 [20]): Active
Activity (HepG2 [21]): inactive
Activity (HepG2 [22]): 26.9%
Activity (HepG2 [23]): Active
inhibition (HepG2 [24]): Dose-dependent effect
IC50 (HepG2 [24]; HepG2, 48 h): 15.1 µg/mL (≈ 47.8 µM)
Activity (HepG2 [25]): 36%
inhibition (HepG2 [26]): tde
inhibition at 10 µg/mL (HepG2 [27]): 69.5%
